# Results taken from patent US20060069132A1, “Azolecarboxamide herbicides” (priority 2004, published 2006).
# What was measured:
# [1] = tested on: corn; assay: Test B pre-/postemergence herbicide test; type: in vivo, Zea mays; details: for Plant response rating, Corn: visual rating after 13 to 15 days
# Method in brief: (§1)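 Greenhouse pot assay with simultaneous preemergence (treated seed) and postemergence (2–18 cm seedlings) applications of surfactant-containing, non-phytotoxic solvent formulations. Response scored visually 13–15 days later on a 0–100 scale, 100 meaning complete control.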
# [2] = tested on: barnyardgrass; assay: Test B pre-/postemergence herbicide test; type: in vivo, Echinochloa crus-galli; details: for Plant response rating, Barnyardgrass: visual rating after 13 to 15 days
# Method in brief: as §1
# [3] = tested on: ducksalad; assay: Test B flooded paddy test; type: in vivo, Heteranthera limosa; details: 1000 g ai/ha, visual rating, scale 0 to 100 (0 no effect, 100 complete control), 13 to 15 days
# Method in brief: (§2)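 Greenhouse test; postemergence application to plants at 1–4 leaves (2–18 cm); paddy species at 2 leaves; evaluated visually vs controls at 13–15 days; scale 0–100 (100 = complete control).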
# [4] = tested on: large crabgrass; assay: Test B pre-/postemergence herbicide test; type: in vivo, Digitaria sanguinalis; details: for Plant response rating, Crabgrass, Large: visual rating after 13 to 15 days
# Method in brief: as §1
# [5] = tested on: small flower umbrella sedge; assay: Test B flooded paddy test; type: in vivo, Cyperus difformis; details: 1000 g ai/ha, visual rating, scale 0 to 100 (0 no effect, 100 complete control), 13 to 15 days
# Method in brief: as §2
# [6] = tested on: barnyardgrass; assay: Test B flooded paddy test; type: in vivo, Echinochloa crus-galli; details: 1000 g ai/ha, visual rating, scale 0 to 100 (0 no effect, 100 complete control), 13 to 15 days
# Method in brief: as §2
# [7] = tested on: wheat; assay: Test B postemergence herbicide test; type: in vivo, Triticum aestivum; details: Postemergence, 500 g ai/ha; visual rating after 13 to 15 days, scale 0 (no effect) to 100 (complete control)
# Method in brief: (§3)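 Read-out: visual comparison with controls, scored 0 to 100, where 100 means complete control and 0 no effect. Formulated chemicals were applied postemergence to plants 2–18 cm tall (1- to 4-leaf), or to flooded-paddy plants at the 2-leaf stage, then held 13 to 15 days under glass.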
# [8] = tested on: wild oat; assay: Test B postemergence herbicide test; type: in vivo, Avena fatua; details: Postemergence, scale 0 (no effect) to 100 (complete control); for Oat, Wild plant response rating: 125 g ai/ha; for Plant response rating, Oat, Wild: 500 g ai/ha, visual rating after 13 to 15 days
# Method in brief: as §3
# [9] = tested on: Surinam grass; assay: Test B pre-/postemergence herbicide test; type: in vivo, Urochloa decumbens; details: for Surinam Grass plant response rating: Preemergence, scale 0 to 100
# Method in brief: as §1
# [10] = tested on: rice; assay: Test B flooded paddy test; type: in vivo, Oryza sativa; details: 1000 g ai/ha, visual rating, scale 0 to 100 (0 no effect, 100 complete control), 13 to 15 days
# Method in brief: as §2
# [11] = tested on: lambsquarters; assay: Test B pre-/postemergence herbicide test; type: in vivo, Chenopodium album
# Method in brief: as §1
# [12] = tested on: giant foxtail; assay: Test B pre-/postemergence herbicide test; type: in vivo, Setaria faberi
# Method in brief: as §1
# [13] = tested on: blackgrass; assay: Test B postemergence herbicide test; type: in vivo, Alopecurus myosuroides; details: Postemergence, scale 0 (no effect) to 100 (complete control); for Blackgrass plant response rating: 125 g ai/ha; for Plant response rating, Blackgrass: 500 g ai/ha, visual rating after 13 to 15 days
# Method in brief: as §2
# [14] = tested on: cocklebur; assay: Test B pre-/postemergence herbicide test; type: in vivo, Xanthium strumarium; details: for Plant response rating, Cocklebur: visual rating after 13 to 15 days
# Method in brief: as §1
# [15] = tested on: morningglory; assay: Test B pre-/postemergence herbicide test; type: in vivo, Ipomoea coccinea
# Method in brief: as §1
# [16] = tested on: pigweed; assay: Test B pre-/postemergence herbicide test; type: in vivo, Amaranthus retroflexus; details: for Pigweed plant response rating: Preemergence, scale 0 to 100
# Method in brief: as §1
# [17] = Preemergence, 500 g ai/ha, scale 0 to 100
# [18] = Postemergence, 125 g ai/ha, scale 0 (no effect) to 100 (complete control)
# [19] = Postemergence, 500 g ai/ha, scale 0 (no effect) to 100 (complete control)
# [20] = Postemergence, 500 g ai/ha, visual rating after 13 to 15 days, scale 0 (no effect) to 100 (complete control)
# [21] = preemergence, 125 g ai/ha, 0 to 100 scale, 0 is no effect, 100 is complete control
SMILES,"Corn plant response rating [1, 17]","Barnyardgrass plant response rating [2, 18]","Plant response rating, Barnyardgrass [2, 19]","Barnyardgrass plant response rating [2, 17]",Ducksalad plant response rating [3],"Crabgrass, Large plant response rating [4, 18]","Plant response rating, Crabgrass, Large [4, 19]","Crabgrass, Large plant response rating [4, 17]","Sedge, Umbrella plant response rating [5]",Barnyardgrass plant response rating [6],"Plant response rating, Wheat [7]","Oat, Wild plant response rating [8]","Plant response rating, Oat, Wild [8]","Plant response rating, Surinam Grass [9, 20]",Surinam Grass plant response rating ([9]; 500 g ai/ha),"Plant response rating, Surinam Grass [9, 21]",Rice plant response rating [10],"Lambsquarters plant response rating [11, 18]","Plant response rating, Lambsquarters [11, 20]","Lambsquarters plant response rating [11, 17]",other results
C=Cn1nc(C(C)(C)C)cc1C(=O)Nc1cccc(C(=O)NCC)c1 [Compound 33],30,20,30,90,90,20,30,100,90,90,30,10,10,30,80,30,60,90,90,100,"Plant response rating, Lambsquarters [11, 21]: 100; Foxtail, Giant plant response rating [12, 18]: 30; Plant response rating, Foxtail, Giant [12, 20]: 30; Foxtail, Giant plant response rating [12, 17]: 100; Plant response rating, Foxtail, Giant [12, 21]: 80; Blackgrass plant response rating [13]: 20; Plant response rating, Blackgrass [13]: 20; Cocklebur plant response rating [14, 18]: 80; Plant response rating, Cocklebur [14, 19]: 100; Cocklebur plant response rating [14, 17]: 30; Plant response rating, Morningglory [15, 21]: 10; Plant response rating, Pigweed [16, 20]: 90; Pigweed plant response rating ([16]; 500 g ai/ha): 100; Plant response rating, Pigweed [16, 21]: 100"
C=CCNC(=O)c1cccc(NC(=O)c2cc(C(C)(C)C)nn2CC)c1 [Compound 46],10,10,50,100,90,30,90,100,80,90,30,0,10,40,70,20,70,80,90,100,"Corn plant response rating [1, 18]: 20; Plant response rating, Corn [1, 19]: 30; Plant response rating, Lambsquarters [11, 21]: 100; Foxtail, Giant plant response rating [12, 18]: 30; Plant response rating, Foxtail, Giant [12, 20]: 40; Foxtail, Giant plant response rating [12, 17]: 100; Plant response rating, Foxtail, Giant [12, 21]: 60; Blackgrass plant response rating [13]: 10; Plant response rating, Blackgrass [13]: 20; Cocklebur plant response rating [14, 18]: 30; Plant response rating, Cocklebur [14, 19]: 90; Cocklebur plant response rating [14, 17]: 30; Morningglory plant response rating [15, 18]: 0; Plant response rating, Morningglory [15, 20]: 90; Morningglory plant response rating [15, 17]: 20; Plant response rating, Morningglory [15, 21]: 10; Plant response rating, Pigweed [16, 20]: 90; Pigweed plant response rating ([16]; 500 g ai/ha): 100; Plant response rating, Pigweed [16, 21]: 100"
C#CCNC(=O)c1cccc(NC(=O)c2cc(C(C)(C)C)nn2CC)c1 [Compound 47],10,20,40,90,80,10,70,100,80,90,30,10,30,40,70,20,70,80,90,100,"Corn plant response rating [1, 18]: 10; Plant response rating, Corn [1, 19]: 30; Plant response rating, Lambsquarters [11, 21]: 100; Foxtail, Giant plant response rating [12, 18]: 30; Plant response rating, Foxtail, Giant [12, 20]: 30; Foxtail, Giant plant response rating [12, 17]: 90; Plant response rating, Foxtail, Giant [12, 21]: 40; Blackgrass plant response rating [13]: 10; Plant response rating, Blackgrass [13]: 10; Cocklebur plant response rating [14, 18]: 10; Plant response rating, Cocklebur [14, 19]: 100; Cocklebur plant response rating [14, 17]: 40; Morningglory plant response rating [15, 18]: 30; Plant response rating, Morningglory [15, 20]: 100; Morningglory plant response rating [15, 17]: 30; Plant response rating, Morningglory [15, 21]: 20; Plant response rating, Pigweed [16, 20]: 100; Pigweed plant response rating ([16]; 500 g ai/ha): 100; Plant response rating, Pigweed [16, 21]: 100"
CCN(C)C(=O)c1cccc(NC(=O)c2cc(C(C)(C)C)nn2CC)c1 [Compound 48],0,40,60,90,80,10,20,80,80,80,20,10,30,50,80,10,80,60,90,90,"Corn plant response rating [1, 18]: 0; Plant response rating, Corn [1, 19]: 30; Plant response rating, Lambsquarters [11, 21]: 90; Foxtail, Giant plant response rating [12, 18]: 20; Plant response rating, Foxtail, Giant [12, 20]: 30; Foxtail, Giant plant response rating [12, 17]: 90; Plant response rating, Foxtail, Giant [12, 21]: 70; Blackgrass plant response rating [13]: 0; Plant response rating, Blackgrass [13]: 10; Cocklebur plant response rating [14, 18]: 0; Plant response rating, Cocklebur [14, 19]: 70; Cocklebur plant response rating [14, 17]: 50; Morningglory plant response rating [15, 18]: 0; Plant response rating, Morningglory [15, 20]: 50; Morningglory plant response rating [15, 17]: 40; Plant response rating, Morningglory [15, 21]: 10; Plant response rating, Pigweed [16, 20]: 70; Pigweed plant response rating ([16]; 500 g ai/ha): 100; Plant response rating, Pigweed [16, 21]: 100"
